Measurements from PubChem BioAssay (NCI).
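How tested: cells in 96-well plates exposed to compound for 48 hours at five concentrations. GI50 = concentration required for 50% inhibition of growth. TGI marks complete inhibition of growth.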

What was measured:
Test in all cases: DTP human tumour cell line panel, 48 h
DU-145 prostate = tested on: DU-145 prostate
M14 melanoma = tested on: M14 melanoma
MOLT-4 leukemia = tested on: MOLT-4 leukemia
NCI/ADR-RES ovarian = tested on: NCI/ADR-RES ovarian
PC-3 prostate = tested on: PC-3 prostate
RPMI-8226 leukemia = tested on: RPMI-8226 leukemia
SF-295 CNS = tested on: SF-295 CNS
SK-MEL-28 melanoma = tested on: SK-MEL-28 melanoma
UO-31 renal = tested on: UO-31 renal
SR leukemia = tested on: SR leukemia

SMILES	GI50 (DU-145 prostate) [µM]	TGI (DU-145 prostate) [µM]	GI50 (M14 melanoma) [µM]	TGI (M14 melanoma) [µM]	GI50 (MOLT-4 leukemia) [µM]	TGI (MOLT-4 leukemia) [µM]	GI50 (NCI/ADR-RES ovarian) [µM]	TGI (NCI/ADR-RES ovarian) [µM]	GI50 (PC-3 prostate) [µM]	TGI (PC-3 prostate) [µM]	GI50 (RPMI-8226 leukemia) [µM]	TGI (RPMI-8226 leukemia) [µM]	GI50 (SF-295 CNS) [µM]	TGI (SF-295 CNS) [µM]	GI50 (SK-MEL-28 melanoma) [µM]	TGI (SK-MEL-28 melanoma) [µM]	GI50 (UO-31 renal) [µM]	TGI (UO-31 renal) [µM]	GI50 (SR leukemia) [µM]	TGI (SR leukemia) [µM]
Cc1cc(C)c(CNC(=O)c2cc(Cl)c3c(c2C)O[C@@](C)(C2CCC(N(C)C)CC2)O3)c(=O)[nH]1 (stereo partly drawn)	> 100	> 100	33.8	> 100	58.6	> 100	> 100	> 100	69.7	> 100	38	> 100	> 100	> 100	> 100	> 100	45.6	> 100	–	–
COc1ccc2c(c1)c(-c1nc(-c3cn(C)c4ncccc34)cs1)cn2CCCCN1CCCCC1	1.74	3.12	–	–	–	–	–	–	1.61	3	–	–	–	–	1.74	3.16	1.43	2.77	–	–
CC1(C)N=C(N)N=C(N)N1c1cccc(CC(=O)Nc2ccccc2)c1	12.7	> 100	40.2	> 100	25.2	> 100	> 100	> 100	0.895	> 100	–	–	30.6	> 100	9.15	77	> 100	> 100	2.53	> 100
CCOc1ccc(/C=C/C(=O)c2sc(NNC(C)=O)nc2C)cc1	–	–	–	–	–	> 100	–	–	–	–	–	> 100	–	> 100	–	> 100	–	> 100	–	–
Cc1cc2c(=O)cc(-c3ccncc3)oc2c(C(N)=O)c1C	–	–	–	–	–	> 100	–	–	–	–	–	> 100	–	> 100	–	> 100	–	> 100	–	> 100
C=CN(C(=O)N1CCN(c2cc3c(cc2F)c(=O)c(C(=O)O)cn3C2CC2)CC1)c1nc(-c2ccc(C)cc2)cs1	3.8	> 100	–	–	–	–	2.67	7.24	0.376	6.52	0.53	> 100	2.59	7.11	4.49	> 100	–	–	2.15	> 100
N#Cc1cccc(C2SCc3nc4ccccc4n32)c1 (stereo not drawn)	–	–	–	–	–	> 100	–	–	–	–	–	–	–	> 100	–	> 100	–	> 100	–	> 100
CN(C)c1ccc(-c2cc(-c3cccc(NS(C)(=O)=O)c3)nc(N)c2C#N)cc1	–	–	0.0262	13.4	0.0822	> 58.4	–	–	0.0327	13.3	0.0416	2.55	0.0274	3.95	0.0508	35.1	0.0562	45	0.0359	26.7
CCc1cccc(CC)c1NC1=CC(=O)C(=O)c2ccccc21	–	–	–	27.2	–	> 100	–	–	–	–	–	> 100	–	28.3	–	37.4	–	46.9	–	> 100
O=c1[nH]c(-c2ccncc2)nc2sc3c(c12)CCCCCC3	> 100	> 100	> 100	> 100	> 100	> 100	–	–	> 100	> 100	> 100	> 100	–	–	> 100	> 100	> 100	> 100	–	–
C#CC[C@]12CC(=O)CC[C@H]1CC1(C2)OCCO1	–	–	–	> 100	–	> 100	–	–	–	–	–	> 100	–	–	–	> 100	–	> 100	–	> 100
Cc1nc2ccccc2c(=O)n1/N=C(\N=Nc1ccc(Cl)cc1)c1ccc(N(C)C)cc1	–	–	–	–	–	> 100	–	–	–	–	–	–	–	> 100	–	> 100	–	> 100	–	–
CCC[CH2][Sn]1([CH2]CCC)[O]C(=O)c2cccnc2[S]1	–	–	3.22	10.1	1.87	7.71	–	–	–	–	1.48	5.29	3.19	12	2.7	10.6	8.59	20.9	1.4	5.65
OC1(c2ccccc2)c2ccccc2N(c2ccccc2)c2ccc(Cl)cc21 (stereo not drawn)	0.412	1.39	0.249	0.694	0.294	1.25	1.55	6.23	0.303	1.23	0.216	0.862	0.575	2.27	0.193	0.434	0.38	1.51	–	–
O=c1c2cc(F)ccc2sc2c(NCCCNCCO)nc3ccc(F)cc3c12	1.76	3.19	1.85	3.67	–	–	1.67	3.22	1.67	3.3	2.3	5.1	1.77	3.23	1.78	3.25	1.11	2.37	3.41	> 100
CC(=O)O[C@@H]1[C@H]2O[C@H]2[C@H]2O[C@@]2(COC(=O)c2ccccc2)[C@H]1OC(C)=O	–	> 100	–	> 100	–	> 100	–	> 100	–	> 100	–	> 100	–	> 100	–	> 100	–	> 100	–	–
CCc1ccc2cc3c(ccc4ccccc43)c3c2c1CC3	> 100	> 100	> 100	> 100	> 100	> 100	> 100	> 100	> 100	> 100	> 100	> 100	–	–	> 100	> 100	> 100	> 100	> 100	> 100
BrC(/C=N/Nc1nnc(-c2ccccc2)c(-c2ccccc2)n1)C(Br)c1ccccc1 (stereo not drawn)	–	–	–	51.8	–	> 100	–	–	–	–	–	70.7	–	> 100	–	> 100	–	60.5	–	–
O=C(/C=C/c1c[nH]c2ccccc12)c1ccccc1O	–	23.9	–	27	–	37	–	–	–	18.7	–	62.1	–	22.3	–	47.6	–	17.6	–	–
COc1cc(CC2c3cc(OC)c(OC)cc3CCN2C)c(C(=O)O)cc1OC (stereo not drawn)	–	–	–	> 100	–	> 100	–	–	–	–	–	> 100	–	> 100	–	> 100	–	> 100	–	> 100

SMILES	GI50 (DU-145 prostate) [µM]	TGI (DU-145 prostate) [µM]	GI50 (M14 melanoma) [µM]	TGI (M14 melanoma) [µM]	GI50 (MOLT-4 leukemia) [µM]	TGI (MOLT-4 leukemia) [µM]	GI50 (NCI/ADR-RES ovarian) [µM]	TGI (NCI/ADR-RES ovarian) [µM]	GI50 (PC-3 prostate) [µM]	TGI (PC-3 prostate) [µM]	GI50 (RPMI-8226 leukemia) [µM]	TGI (RPMI-8226 leukemia) [µM]	GI50 (SF-295 CNS) [µM]	TGI (SF-295 CNS) [µM]	GI50 (SK-MEL-28 melanoma) [µM]	TGI (SK-MEL-28 melanoma) [µM]	GI50 (UO-31 renal) [µM]	TGI (UO-31 renal) [µM]	GI50 (SR leukemia) [µM]	TGI (SR leukemia) [µM]
CC(=O)Nc1ccc(/C=C/C(=O)c2sc(-n3nc(-c4ccccc4)cc3-c3ccccc3)nc2C)cc1	–	–	> 100	> 100	> 100	> 100	–	–	–	–	> 100	> 100	> 100	> 100	> 100	> 100	> 100	> 100	–	–
COc1cnc2c(c1)C(=O)c1c-2n(CCCN2CCNCC2)c(=O)c2cc(F)ccc12	0.0623	1.15	0.366	1.88	0.0275	0.164	0.865	4.43	0.596	2.51	0.0505	0.458	–	–	1.52	3.03	0.133	1.12	0.05	0.863
CCCCP1(=O)C=CC(Cl)=C(C)C1 (stereo not drawn)	–	–	–	> 100	–	> 100	–	–	–	–	–	–	–	> 100	–	> 100	–	> 100	–	–
CC1SC(c2ccc(OCc3ccccc3)cc2)N(NC(=O)C(O)(c2ccccc2)c2ccccc2)C1=O (stereo not drawn)	3.55	13.6	–	–	2.02	5.58	3.72	17.8	2.08	6.85	2.05	6.13	1.78	4.53	4.44	16.3	3.74	21.3	–	–
COc1cc(-c2nn(-c3cccc(NC(=O)NCCNC(=O)c4ccccc4)c3)cc2-c2ccncc2)ccc1Cl	4.72	> 100	2.88	> 100	2.18	> 100	–	–	2.4	> 100	–	–	1.63	4.57	3.04	> 100	2.76	> 100	2.42	> 100
O=C(c1ccccc1)N1CCc2c([nH]c3ccccc23)C1	–	–	–	> 100	–	64.4	–	–	–	–	–	74.9	–	> 100	–	> 100	–	99.2	–	> 100
O=C(NC(=Nc1ccccc1)SCCSC(=Nc1ccccc1)NC(=O)c1ccccc1)c1ccccc1	–	–	–	> 100	–	> 100	–	–	–	–	–	> 100	–	> 100	–	> 100	–	88.2	–	–
O=C(N=Nc1c(O)[nH]c2c(Cl)cc(Cl)cc12)C(=O)Nc1cccc(C(F)(F)F)c1	–	–	–	> 100	–	> 100	–	> 100	–	> 100	–	–	–	> 100	–	> 100	–	> 100	–	> 100
Cc1c(Cl)ccc2[s+]snc12	–	–	–	77.8	–	95.1	–	–	–	–	–	–	–	> 100	–	> 100	–	> 100	–	> 100
Nc1nc(-c2ccccn2)c(-c2ccc3ncccc3n2)s1	> 25	> 25	> 25	> 25	> 25	> 25	> 25	> 25	> 25	> 25	> 25	> 25	> 25	> 25	> 25	> 25	> 25	> 25	–	–
COc1cc(Br)c(C2OCCCO2)cc1OCc1ccccc1	–	–	–	> 100	–	> 100	–	–	–	–	–	> 100	–	> 100	–	> 100	–	> 100	–	–
CC(C)CC(=O)O[C@H]1C(=O)O[C@@H]2C[C@H]3[C@H](C)C(=O)C(O[C@@H]4O[C@H](CO)[C@@H](O)[C@H](O)[C@H]4O)=C[C@]3(C)[C@H]3[C@@H](O)[C@H](O)[C@]4(C(=O)O)OC[C@]32[C@@H]14	> 100	> 100	–	> 100	18.9	> 100	> 100	> 100	–	> 100	–	–	–	–	25.2	> 100	–	> 100	33.6	> 100
Cc1nn(-c2ccccc2)c2c1[C@@H](C)[C@H]1CC3(CC4(C)C[C@@H]3C1(C)c1c(C)nn(-c3ccccc3)c1N4C)N2C (stereo partly drawn)	> 100	> 100	–	–	–	–	> 100	> 100	0.591	> 100	–	–	–	–	31.4	> 100	–	–	–	–
O=C1N(c2ccccc2)C2(O)C(=O)c3ccccc3C2(O)N1c1ccccc1 (stereo not drawn)	–	–	–	> 100	–	> 100	–	–	–	–	–	> 100	–	> 100	–	> 100	–	> 100	–	> 100
Fc1cnccc1-c1nc2ccc3[nH]ncc3c2c2c1CCCC2	1.67	43.3	1.58	> 100	–	–	2.41	> 100	2.13	> 100	1.2	6.33	2.53	> 100	–	–	1.91	8.04	0.519	5.08
O=C(CC1(O)C(=O)Nc2ccc(Br)cc21)c1cccc([N+](=O)[O-])c1 (stereo not drawn)	–	–	–	> 100	–	70.1	–	–	–	–	–	57.9	–	> 100	–	> 100	–	> 100	–	–
C/C(=N\NC(N)=S)c1ccc(Oc2ccccc2)cc1	–	–	–	25.8	–	17.4	–	–	–	–	–	10.9	–	38.4	–	33.2	–	–	–	–
N#CCC1CCN(c2nc(Nc3ccc(N4CCC(O)CC4)cc3)c3c(=O)[nH]ncc3n2)CC1	0.547	> 100	0.402	> 100	0.652	> 100	–	–	> 100	> 100	> 100	> 100	1.44	> 100	1.2	> 100	0.259	4.67	0.288	> 100
CC[C@H]1CNC(=O)CC1CC(=O)OC (stereo partly drawn)	–	–	–	> 100	–	> 100	–	–	–	–	–	–	–	> 100	–	> 100	–	> 100	–	> 100
Cc1cc(Br)ccc1N=NC1C(=O)ON=C1c1ccccc1 (stereo not drawn)	–	–	–	> 100	–	> 100	–	–	–	–	–	> 100	–	> 100	–	> 100	–	> 100	–	> 100
